Article PMC5267515, “In Vitro and Clinical Evaluations of the Drug-Drug Interaction Potential of a Metabotropic Glutamate 2/3 Receptor Agonist Prodrug with Intestinal Peptide Transporter 1” (Drug Metabolism and Disposition, 2017)
Entries after “also recorded” stand apart in the source; their conditions may differ. Read-outs that look alike come from different tables or passages of the source. Values belong to the molecule of their own block, whether it stands above or below them.

How the values were obtained:
clinical = conditions: human, in vivo
[1] = human, in vivo
[2] = Clinical drug interaction study (H8Y-MC-HBCF), plasma and urine pharmacokinetics in healthy subjects; conditions: for Tmax: median (min–max)
Pept1 knockout mice = system: Pept1 knockout mice; design: method as in data on file, Eli Lilly and Company; conditions: ref data on file, Eli Lilly and Company; cited from earlier work
[3] = Clinical study safety (adverse events) in healthy subjects; assay type: in vivo, human
PEPT1 [4] = target: T1, PEPT1 (Homo sapiens, UniProt P46059); test: Proton- and time-dependent transport of prodrug and active moiety in PEPT1 transfected HeLa cells; assay type: in vitro ADME; design: expressed in transfected cells; host or cells: HeLa cells (ATCC), transiently transfected with Fugene 6, pcDNA3.1 vector; conditions: 30 μM, pH 6.0 or 7.5, PEPT1 vs empty vector transfected HeLa cells
T1 sequence (P46059 1-708): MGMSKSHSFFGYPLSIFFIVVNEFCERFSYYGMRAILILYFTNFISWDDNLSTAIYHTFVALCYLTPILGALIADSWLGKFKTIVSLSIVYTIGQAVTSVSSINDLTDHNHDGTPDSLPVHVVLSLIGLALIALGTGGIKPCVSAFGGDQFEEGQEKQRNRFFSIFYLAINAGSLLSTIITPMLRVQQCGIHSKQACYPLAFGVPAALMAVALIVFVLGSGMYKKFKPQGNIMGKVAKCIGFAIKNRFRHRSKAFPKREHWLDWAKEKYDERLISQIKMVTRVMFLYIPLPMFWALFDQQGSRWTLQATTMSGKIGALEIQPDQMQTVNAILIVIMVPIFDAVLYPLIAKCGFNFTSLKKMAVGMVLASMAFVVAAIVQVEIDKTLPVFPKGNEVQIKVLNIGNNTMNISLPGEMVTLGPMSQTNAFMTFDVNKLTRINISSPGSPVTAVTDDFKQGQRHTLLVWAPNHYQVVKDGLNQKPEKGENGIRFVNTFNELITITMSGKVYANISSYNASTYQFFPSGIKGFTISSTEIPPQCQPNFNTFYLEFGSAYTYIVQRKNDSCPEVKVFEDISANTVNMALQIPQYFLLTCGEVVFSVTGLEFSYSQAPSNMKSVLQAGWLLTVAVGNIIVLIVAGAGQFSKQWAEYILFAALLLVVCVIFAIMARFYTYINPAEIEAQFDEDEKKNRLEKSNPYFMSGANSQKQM
Protocol: The PEPT1 mediated [^14C]LY2140023 (30 μM) and [^14C]LY404039 (30 μM) uptake was measured in cells 24 hours post transfection. The time-dependent transport of LY2140023 and LY404039 was conducted using buffers prepared at either pH 6.0 or 7.5 as described above. The cells transfected with empty pcDNA3.1 vector were used to measure the passive diffusion of LY2140023 and LY404039. The cells were incubated for 1, 2.5, 5, 7.5, 10, and 15 minutes at room temperature and were washed, lysed, and contents quantified as described above.

PEPT1 [5] = target: T1, PEPT1; test: Potential for clinical DDI: estimated GI concentration (I2) versus in vitro IC50; design: expressed in transfected cells; host or cells: HeLa cells (ATCC), transiently transfected with Fugene 6, pcDNA3.1 vector; conditions: dose divided by 250 ml (glass of water)
Protocol: These concentrations (I2) were obtained by dividing the recommended clinical dose by a volume of 250 ml (volume of glass of water) (Table 3).
Subsequently, to normalize the inhibitory potential to the clinical dose, the in vitro IC50 values were […] (the volume of a glass of water).

PEPT1 [6] = target: T1, PEPT1; test: Inhibition of PEPT1-mediated [14C]Gly-Sar uptake in transfected HeLa cells; assay type: in vitro ADME; design: expressed in transfected cells; host or cells: HeLa cells (ATCC), transiently transfected with Fugene 6, pcDNA3.1 vector; conditions: 25 μM [14C]Gly-Sar; LY2140023 5 to 1000 μM; 3 minutes; read-out: IC50 against Gly-Sar, mean of two separate experiments
Protocol: An inhibition assay was conducted using 25 μM [^14C]Gly-Sar (0.278 μCi/ml) as a probe substrate to assess if the uptake of [^14C]Gly-Sar was inhibited by prodrug (5 to 1000 μM). The cells were incubated for 3 minutes in uptake buffer containing 25 μM [^14C]Gly-Sar and different concentrations of LY2140023 at room temperature. The uptake was corrected for background determined by parallel experiment in cells transfected with pcDNA3.1 empty vector. Cell lysing and protein quantification were performed as described above.

MDCK-MDR1 cells = system: MDCK-MDR1 cells; design: method as in data on file, Eli Lilly and Company; conditions: ref data on file, Eli Lilly and Company; cited from earlier work
PEPT1 [7] = target: T1, PEPT1; test: Inhibition of PEPT1-mediated [14C]LY2140023 uptake in transfected HeLa cells; conditions: 10 μM [14C]LY2140023
PEPT1 [8] = target: PEPT1; design: method as in Ganapathy et al. (1998); conditions: ref Ganapathy et al. (1998); read-out: Ki value (printed in column IC50 against Gly-Sar); cited from earlier work
[9] = LY2140023 80 mg + valacyclovir 1000 mg coadministered, geometric mean (CV%)
[10] = human, plasma, oral, Cmax LS Geometric Mean, LY2140023 + Valacyclovir (Test)
[11] = human, plasma, oral, Cmax, LY2140023 80 mg + valacyclovir 1000 mg coadministered, geometric mean (CV%)
[12] = human, plasma, oral, LY2140023 80 mg + valacyclovir 1000 mg coadministered

AUC(0-inf) (clinical; AUC(0-∞)): 17500 ng·h/mL | AUC(0-inf) (clinical; AUC(0-∞) LS Geometric Mean): 17500 ng·h/mL | Cmax (clinical; Cmax): 4400 ng/mL | Cmax (clinical; Cmax LS Geometric Mean): 4400 ng/mL | Tmax (clinical; tmax): 2.5 h | fe [1]: 0.460 (32.0)
Structure (SMILES): Nc1nc2c(ncn2COCCO)c(=O)[nH]1 [Acyclovir]

CL/F [2, 9]: 65.9 (31) L/hour | half-life ([2]; human, plasma, oral, 80 mg): 1.92 h | AUC(0-inf) ([2]; human, plasma, oral, 80 mg, AUC(0-∞) LS Geometric Mean, LY2140023 Alone (Reference)): 1350 ng·h/mL | AUC(0-inf) ([2]; human, plasma, oral, 80 mg, AUC(0-∞), single 80-mg dose of LY2140023 alone, geometric mean (CV%)): 1330 ng·h/mL | Cmax ([2]; human, plasma, oral, 80 mg, Cmax LS Geometric Mean, LY2140023 Alone (Reference)): 310 ng/mL | Cmax ([2]; human, plasma, oral, 80 mg, Cmax, single 80-mg dose of LY2140023 alone, geometric mean (CV%)): 307 ng/mL | Tmax ([2]; human, plasma, oral, 80 mg, single 80-mg dose of LY2140023 alone): 3 h | AUC(0-inf) ([2]; human, plasma, oral, AUC(0-∞) LS Geometric Mean, LY2140023 + Valacyclovir (Test)): 1220 ng·h/mL | AUC(0-inf) ([2]; human, plasma, oral, AUC(0-∞), LY2140023 80 mg + valacyclovir 1000 mg coadministered, geometric mean (CV%)): 1210 ng·h/mL | Cmax [2, 10]: 275 ng/mL | Cmax [2, 11]: 272 ng/mL | Tmax [2, 12]: 3 h | CL/F ([2]; single 80-mg dose of LY2140023 alone, geometric mean (CV%)): 60.2 (27) L/hour | Vd/F (clinical; Vz/F): 166 L | PEPT1 substrate status (PEPT1 [4]; listed as LY2140023 monohydrate): is a substrate of PEPT1 | Estimated Intestinal Concentration (PEPT1 [5]): 0.873 mM | IC50 (PEPT1 [6]): 18 µM
Structure (SMILES): CSCC[C@H](N)C(=O)N[C@@]1(C(=O)O)CS(=O)(=O)[C@H]2[C@H](C(=O)O)[C@H]21 [LY2140023, Pomaglumetad methionil]
AUC0–∞ in Pept1 knockout mice relative to wildtype mice (Pept1 knockout mice): 10% | Cmax in Pept1 knockout mice relative to wildtype mice (Pept1 knockout mice): 10% | most common AEs ([3]; after prodrug alone (80 mg)): nausea, dizziness, somnolence, and headache | PEPT1 substrate status (PEPT1 [4]): a PEPT1 substrate; also recorded: PEPT1-mediated, proton-dependent process | passive permeability (MDCK-MDR1 cells): approximately 1 × 10^−6 cm/s

fe (fraction of the dose excreted in urine) [2, 9]: 0.00776 (25.4) | AUC(0-t) ([2]; human, plasma, oral, 1000 mg, AUC(0-3) LS Geometric Mean, Valacyclovir Alone (Reference)): 309 ng·h/mL | AUC(0-t) ([2]; human, plasma, oral, 1000 mg, AUC(0-3), single 1000-mg dose of valacyclovir alone, geometric mean (CV%), n = 22): 311 ng·h/mL | Cmax ([2]; human, plasma, oral, 1000 mg, Cmax LS Geometric Mean, Valacyclovir Alone (Reference)): 245 ng/mL | Cmax ([2]; human, plasma, oral, 1000 mg, Cmax, single 1000-mg dose of valacyclovir alone, geometric mean (CV%)): 245 ng/mL | Tmax ([2]; human, plasma, oral, 1000 mg, single 1000-mg dose of valacyclovir alone): 2 h | AUC(0-t) ([2]; human, plasma, oral, AUC(0-3) LS Geometric Mean, Valacyclovir + LY2140023 (Test)): 278 ng·h/mL | AUC(0-t) ([2]; human, plasma, oral, AUC(0-3), LY2140023 80 mg + valacyclovir 1000 mg coadministered, geometric mean (CV%)): 270 ng·h/mL | Cmax [2, 10]: 258 ng/mL | Cmax [2, 11]: 255 ng/mL | Tmax [2, 12]: 2 h | CL renal ([2]; human, urine and plasma, oral, 1000 mg): 262 mL/min | fe ([2]; single 1000-mg dose of valacyclovir alone, geometric mean (CV%)): 0.00703 (64.7) | IC50 (PEPT1 [7]; IC50 against LY2140023, first of two separate experiments): 410 ± 50 µM | IC50 (PEPT1 [7]; IC50 against LY2140023, second of two separate experiments): 500 ± 110 µM | IC50 (PEPT1 [7]; Mean IC50 against LY2140023, mean of two separate experiments): 460 µM
Structure (SMILES): CC(C)[C@H](N)C(=O)OCCOCn1cnc2c(=O)[nH]c(N)nc21 [Valacyclovir]
adverse events ([3]; after 1000 mg of valacyclovir alone): mild AE of urticaria; also recorded: one severe AE of headache | Ki (PEPT1 [8]): 740 µM
